Here are results for 24 substances from patent publication US20230407373A1 (priority 2020, published 2023).

Like-named read-outs stand apart in the source and are kept apart here.

Common to all, as to assay type: binding
The test system of one assay is HCoV-OC43 gRNA and sgRNA. The settings on record: for target (unweighted spectral count, OC43 Probe II) / background (unweighted spectral count, no-probe control): type n_48_v, 48 hpi; for target (unweighted spectral count, OC43 Probe II): OC43 Probe II capture on infected cells; for background (unweighted spectral count, no-probe control): no-probe control on infected cells; for target (unweighted spectral count, OC43 Probe II capture) / target (unweighted spectral count): tested against no-probe control; for target (unweighted spectral count, OC43 Probe II capture): FDR<10%; for target (unweighted spectral count): OC43 Probe II, infected cells; for target (spectral count) / background (spectral count): type s_36_m, Probe II; for target (spectral count): HCoV-OC43-infected HCT-8 cells; for background (spectral count): uninfected-probe control.

The subject of another assay is gRNA of HCoV-OC43. The settings on record: for target (spectral count) / background (spectral count): type g_36_m, 36 hpi, Probe I; for target (spectral count): HCoV-OC43-infected HCT-8 cells; for background (spectral count): uninfected-probe control.
In assay [1] the test system is SARS-CoV-2 gRNA and sgRNAs. The settings on record: for target (unweighted spectral count in RNP capture): Probe II capture, LC-MS/MS LFQ; for background (unweighted spectral count in control): no-probe control pull-down, used as background for Probe II; for target (unweighted spectral count of the protein in the RNP capture experiment): LC-MS/MS label-free quantification, probe pool not given; for back-ground (unweighted spectral count of the protein in the control experiment): protein background of the control (e.g. no-probe) experiment.

The mark [2] stands for this setting: type n_48_v: 48 hours post-infection, infected cells, OC43 Probe I, unweighted spectral count.
Setting [3] is: type n_48_v: 48 hours post-infection, no-probe control on infected cells.

Take PLEC: in the assay with HCoV-OC43 gRNA and sgRNA, the “target (unweighted spectral count, OC43 Probe II)” value stood at 6 and the “background (unweighted spectral count, no-probe control)” value is 1.

With KHDRBS1: host protein, UniProt Q07666, in the assay on gRNA of HCoV-OC43, the “target (spectral count)” value amounted to 13 and the “background (spectral count)” value is given as 2. The “target (unweighted spectral count, OC43 Probe II capture)” value in the assay on HCoV-OC43 gRNA and sgRNA (36 hpi, type n_36_v) is recorded as 12. Also, in the assay with HCoV-OC43 gRNA and sgRNA (24 hpi (type n_24_v)), the “target (unweighted spectral count)” value turned out to be 10. In addition, in the assay with HCoV-OC43 gRNA and sgRNA, the “target (unweighted spectral count, OC43 Probe II)” value is on record as 14 and the “background (unweighted spectral count, no-probe control)” value came to 1. Also, in the assay on HCoV-OC43 gRNA and sgRNA (36 hpi), the “target (spectral count)” value is on record as 12 and the “background (spectral count)” value came out at 2.

Consider SQSTM1: host protein, UniProt Q13501, for which, in assay [1], the “target (unweighted spectral count in RNP capture)” value is on record as 19 and the “background (unweighted spectral count in control)” value stood at 1. In addition, in the assay on gRNA of HCoV-OC43, the “target (spectral count)” value turned out to be 7 and the “background (spectral count)” value is 1.

In the case of PRRC2A: host protein, UniProt P48634, in the assay with gRNA of HCoV-OC43, the “target (spectral count)” value was found to be 12 and the “background (spectral count)” value stood at 1. In addition, the “target (spectral count, OC43 Probe I RNP capture)” value in the assay on gRNA of HCoV-OC43 (setting [2]) amounted to 9. In addition, the “background (spectral count, no-probe control)” value in the assay on gRNA of HCoV-OC43 (setting [3]) worked out at 1. In addition, the “target (unweighted spectral count, OC43 Probe II capture)” value with HCoV-OC43 gRNA and sgRNA (36 hpi, type n_36_v) came to 10. In addition, the “target (unweighted spectral count)” value in the assay with HCoV-OC43 gRNA and sgRNA (24 hpi (type n_24_v)) stood at 8. In addition, in the assay on HCoV-OC43 gRNA and sgRNA, the “target (unweighted spectral count, OC43 Probe II)” value amounted to 9 and the “background (unweighted spectral count, no-probe control)” value was 1.

As for YBX2: host protein, UniProt Q9Y2T7, in the assay with HCoV-OC43 gRNA and sgRNA (36 hpi, type n_36_v), the “target (unweighted spectral count, OC43 Probe II capture)” value is reported as 9. Besides, in the assay on HCoV-OC43 gRNA and sgRNA, the “target (unweighted spectral count, OC43 Probe II)” value was found to be 8 and the “background (unweighted spectral count, no-probe control)” value is 1. In the assay on HCoV-OC43 gRNA and sgRNA (36 hpi), the “target (spectral count)” value is 9 and the “background (spectral count)” value amounted to 1.

As to LGALS3, in the assay with HCoV-OC43 gRNA and sgRNA, the “target (unweighted spectral count, OC43 Probe II)” value is 5 and the “background (unweighted spectral count, no-probe control)” value is listed as 1.

For ZFR, the “target (unweighted spectral count, OC43 Probe II capture)” value in the assay with HCoV-OC43 gRNA and sgRNA (24 hpi, type n_24_v) is recorded as 4. In the assay with HCoV-OC43 gRNA and sgRNA, the “target (unweighted spectral count, OC43 Probe II)” value is 6 and the “background (unweighted spectral count, no-probe control)” value stood at 1.

For KHDRB51, in assay [1], the “target (unweighted spectral count in RNP capture)” value was 13 and the “background (unweighted spectral count in control)” value is given as 1.

With GEMIN5, in assay [1], the “target (unweighted spectral count of the protein in the RNP capture experiment)” value was found to be 5 and the “back-ground (unweighted spectral count of the protein in the control experiment)” value (from here on “back-ground”) was 1.

Take NSP8: in the assay with gRNA of HCoV-OC43, the “background (spectral count, no-probe control)” value came out at 1 and the “target (spectral count, OC43 Probe I RNP capture)” value amounted to 5.

ABCF1: the “target (spectral count, OC43 Probe I RNP capture)” value in the assay on gRNA of HCoV-OC43 (setting [2]) worked out at 7. Further, the “background (spectral count, no-probe control)” value in the assay with gRNA of HCoV-OC43 (setting [3]) was 1. For the same substance, in the assay with HCoV-OC43 gRNA and sgRNA, the “target (unweighted spectral count, OC43 Probe II)” value is 5 and the “background (unweighted spectral count, no-probe control)” value was found to be 1.

For the substance EEF1G, the “target (unweighted spectral count, OC43 Probe II capture)” value in the assay with HCoV-OC43 gRNA and sgRNA (36 hpi, type n_36_v) is 4.

SNRNP70: host protein, UniProt P08621: in the assay on gRNA of HCoV-OC43, the “target (spectral count)” value was 9 and the “background (spectral count)” value is 1. In the assay with HCoV-OC43 gRNA and sgRNA, the “target (unweighted spectral count, OC43 Probe II)” value is on record as 8 and the “background (unweighted spectral count, no-probe control)” value is given as 2.

In the case of USP10, the “target (spectral count, OC43 Probe I RNP capture)” value with gRNA of HCoV-OC43 (setting [2]) was 6. Further, the “background (spectral count, no-probe control)” value with gRNA of HCoV-OC43 (setting [3]) is given as 1. Also, the “target (unweighted spectral count, OC43 Probe II capture)” value in the assay with HCoV-OC43 gRNA and sgRNA (24 hpi, type n_24_v) amounted to 5. Besides, the “target (unweighted spectral count, OC43 Probe II capture)” value in the assay with HCoV-OC43 gRNA and sgRNA (36 hpi, type n_36_v) is given as 4. In the assay with HCoV-OC43 gRNA and sgRNA, the “target (unweighted spectral count, OC43 Probe II)” value came out at 7 and the “background (unweighted spectral count, no-probe control)” value was found to be 1.

Consider AKAP8, for which the “target (unweighted spectral count, OC43 Probe II capture)” value with HCoV-OC43 gRNA and sgRNA (36 hpi, type n_36_v) worked out at 4.

For the substance KHDR ? S1, in the assay with gRNA of HCoV-OC43 (setting [2]), the “target (spectral count, OC43 Probe I RNP capture)” value is listed as 18. The “background (spectral count, no-probe control)” value in the assay on gRNA of HCoV-OC43 (setting [3]) worked out at 1.

For LARP4B, in assay [1], the “target (unweighted spectral count of the protein in the RNP capture experiment)” value is 6 and the “back-ground” value amounted to 1. For the same substance, the “target (unweighted spectral count)” value in the assay with HCoV-OC43 gRNA and sgRNA (24 hpi (type n_24_v)) turned out to be 6. Moreover, in the assay with HCoV-OC43 gRNA and sgRNA, the “target (unweighted spectral count, OC43 Probe II)” value was 6 and the “background (unweighted spectral count, no-probe control)” value was found to be 1.

Take MPG: the “target (unweighted spectral count)” value in the assay on HCoV-OC43 gRNA and sgRNA (12 hpi (type n_12_v)) stood at 4.

As to C19orf66, the “target (unweighted spectral count, OC43 Probe II capture)” value in the assay on HCoV-OC43 gRNA and sgRNA (36 hpi, type n_36_v) stood at 4. For the same substance, in the assay on HCoV-OC43 gRNA and sgRNA, the “target (unweighted spectral count, OC43 Probe II)” value was determined as 6 and the “background (unweighted spectral count, no-probe control)” value worked out at 1.

Consider PPIA, for which, in assay [1], the “back-ground” value was found to be 10. Moreover, the “target (spectral count, OC43 Probe I RNP capture)” value in the assay on gRNA of HCoV-OC43 (setting [2]) came to 10. In the assay on gRNA of HCoV-OC43 (setting [3]), the “background (spectral count, no-probe control)” value worked out at 1. Besides, the “target (unweighted spectral count, OC43 Probe II capture)” value in the assay with HCoV-OC43 gRNA and sgRNA (36 hpi, type n_36_v) was 13. Further, in the assay with HCoV-OC43 gRNA and sgRNA, the “target (unweighted spectral count, OC43 Probe II)” value was 12 and the “background (unweighted spectral count, no-probe control)” value came to 1.

Regarding CCAR2: host protein, UniProt Q8N163, in the assay with gRNA of HCoV-OC43, the “target (spectral count)” value is recorded as 20 and the “background (spectral count)” value turned out to be 1. Besides, the “target (spectral count, OC43 Probe I RNP capture)” value in the assay on gRNA of HCoV-OC43 (setting [2]) came to 23. The “background (spectral count, no-probe control)” value in the assay with gRNA of HCoV-OC43 (setting [3]) is 1. Further, the “target (unweighted spectral count, OC43 Probe II capture)” value in the assay with HCoV-OC43 gRNA and sgRNA (36 hpi, type n_36_v) came out at 12. The “target (unweighted spectral count)” value in the assay with HCoV-OC43 gRNA and sgRNA (24 hpi (type n_24_v)) amounted to 8. Besides, in the assay with HCoV-OC43 gRNA and sgRNA, the “target (unweighted spectral count, OC43 Probe II)” value amounted to 20 and the “background (unweighted spectral count, no-probe control)” value turned out to be 1. Moreover, in the assay on HCoV-OC43 gRNA and sgRNA (36 hpi), the “target (spectral count)” value is 12 and the “background (spectral count)” value is on record as 1.

Turning to HELZ2: host protein, UniProt Q9BYK8, in the assay on gRNA of HCoV-OC43, the “target (spectral count)” value amounted to 11 and the “background (spectral count)” value amounted to 1. The “target (spectral count, OC43 Probe I RNP capture)” value with gRNA of HCoV-OC43 (setting [2]) was 8. Also, in the assay with gRNA of HCoV-OC43 (setting [3]), the “background (spectral count, no-probe control)” value worked out at 1. The “target (unweighted spectral count, OC43 Probe II capture)” value in the assay on HCoV-OC43 gRNA and sgRNA (36 hpi, type n_36_v) is 16. Moreover, in the assay on HCoV-OC43 gRNA and sgRNA, the “target (unweighted spectral count, OC43 Probe II)” value was 20 and the “background (unweighted spectral count, no-probe control)” value amounted to 1. Besides, in the assay with HCoV-OC43 gRNA and sgRNA (36 hpi), the “target (spectral count)” value is given as 16 and the “background (spectral count)” value is reported as 1.

ESYT1: the “target (unweighted spectral count, OC43 Probe II capture)” value in the assay with HCoV-OC43 gRNA and sgRNA (36 hpi, type n_36_v) stood at 4.

Consider ATP13A1, for which the “target (unweighted spectral count, OC43 Probe II capture)” value in the assay with HCoV-OC43 gRNA and sgRNA (36 hpi, type n_36_v) is on record as 6.
